Test results published in ChEMBL document CHEMBL6182909 (J Med Chem, 2025).

Key:
[1] = target: T1, 5-hydroxytryptamine receptor 2C (Homo sapiens, UniProt P28335)
T1 sequence (P28335 whole entry): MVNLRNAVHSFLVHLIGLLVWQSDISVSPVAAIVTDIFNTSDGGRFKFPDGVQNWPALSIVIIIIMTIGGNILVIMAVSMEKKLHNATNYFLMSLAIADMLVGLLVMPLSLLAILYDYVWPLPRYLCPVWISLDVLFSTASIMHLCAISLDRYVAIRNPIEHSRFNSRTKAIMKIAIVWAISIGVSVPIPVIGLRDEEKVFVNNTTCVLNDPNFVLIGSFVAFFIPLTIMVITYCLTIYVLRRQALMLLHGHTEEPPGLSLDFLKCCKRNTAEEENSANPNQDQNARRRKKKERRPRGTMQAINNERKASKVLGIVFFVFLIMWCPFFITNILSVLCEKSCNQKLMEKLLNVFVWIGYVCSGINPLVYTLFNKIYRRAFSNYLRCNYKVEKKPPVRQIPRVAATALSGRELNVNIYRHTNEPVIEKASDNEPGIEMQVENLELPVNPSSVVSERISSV

[2] = target: T1, 5-hydroxytryptamine receptor 2C; remark: listed apart in the source
[3] = target: T2, 5-hydroxytryptamine receptor 2B (Homo sapiens, UniProt P41595); assay: Displacement of [125I]-DOI from 5-HT2B receptor (unknown origin) expressed in HEK293 cell membrane assessed as inhibition constant incubated for 1 hr by scintillation counter analysis; type: cell membranes
T2 sequence (P41595 whole entry): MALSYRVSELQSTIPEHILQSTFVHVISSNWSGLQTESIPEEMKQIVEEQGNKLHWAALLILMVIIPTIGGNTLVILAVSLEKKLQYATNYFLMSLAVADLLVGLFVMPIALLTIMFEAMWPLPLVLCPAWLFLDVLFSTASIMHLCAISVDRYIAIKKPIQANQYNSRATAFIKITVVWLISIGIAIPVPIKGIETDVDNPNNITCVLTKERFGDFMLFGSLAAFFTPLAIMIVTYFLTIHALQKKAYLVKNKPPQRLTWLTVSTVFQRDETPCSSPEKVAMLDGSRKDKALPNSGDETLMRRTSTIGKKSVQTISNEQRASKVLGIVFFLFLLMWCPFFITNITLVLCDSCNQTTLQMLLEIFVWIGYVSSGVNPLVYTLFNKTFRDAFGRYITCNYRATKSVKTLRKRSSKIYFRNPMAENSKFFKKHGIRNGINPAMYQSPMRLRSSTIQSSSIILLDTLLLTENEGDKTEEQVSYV

[4] = target: T3, 5-hydroxytryptamine receptor 2A (Homo sapiens, UniProt P28223); assay: Displacement of [125I]-DOI from 5-HT2A receptor (unknown origin) expressed in HEK293 cell membrane assessed as inhibition constant incubated for 1 hr by scintillation counter analysis; type: cell membranes
T3 sequence (P28223 whole entry): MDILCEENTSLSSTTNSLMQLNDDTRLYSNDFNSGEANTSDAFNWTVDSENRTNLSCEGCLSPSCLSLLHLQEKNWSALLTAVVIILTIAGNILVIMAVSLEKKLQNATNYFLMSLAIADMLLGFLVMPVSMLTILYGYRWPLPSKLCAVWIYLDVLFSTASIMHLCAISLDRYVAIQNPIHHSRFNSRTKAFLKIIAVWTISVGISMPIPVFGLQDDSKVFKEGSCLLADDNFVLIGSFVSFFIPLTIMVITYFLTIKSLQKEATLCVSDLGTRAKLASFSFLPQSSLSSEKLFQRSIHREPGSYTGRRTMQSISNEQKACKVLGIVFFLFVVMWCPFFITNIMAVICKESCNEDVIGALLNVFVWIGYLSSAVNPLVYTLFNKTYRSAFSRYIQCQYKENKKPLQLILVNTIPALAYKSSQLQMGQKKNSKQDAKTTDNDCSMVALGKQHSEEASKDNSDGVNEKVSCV

[5] = target: T2, 5-hydroxytryptamine receptor 2B; assay: Displacement of [125I]-DOI from 5-HT2B receptor (unknown origin) expressed in HEK293 cell membrane incubated for 1 hr by scintillation counter analysis; type: cell membranes
[6] = target: T3, 5-hydroxytryptamine receptor 2A; assay: Displacement of [125I]-DOI from 5-HT2A receptor (unknown origin) expressed in HEK293 cell membrane incubated for 1 hr by scintillation counter analysis; type: cell membranes
Rattus norvegicus [7] = assay: Hypophagic effect in fasted male Sprague-Dawley rat assessed as inhibition of food intake at 10 mg/kg, po measured after 1 hr relative to control; type: functional; details: for inhibition (INH): 10 mg/kg; for inhibition in vivo at 10 mg/kg: Rattus norvegicus, Sprague-Dawley, po
Rattus norvegicus [8] = species: Rattus norvegicus; assay: animal or person; details: Sprague-Dawley, po, 1 h, read-out: INH
Rattus norvegicus [9] = species: Rattus norvegicus; assay: animal or person; details: Sprague-Dawley, 1 h, read-out: INH
Rattus norvegicus [10] = assay: Hypophagic effect in fasted male Sprague-Dawley rat assessed as inhibition of food intake at 5 mg/kg, po measured after 1 hr relative to control; type: functional
Rattus norvegicus [11] = assay: Hypophagic effect in fasted male Sprague-Dawley rat assessed as effective dose administered orally measured after 1 hr relative to control; type: functional; details: route po
[12] = Drug concentration in brain of fasted male Sprague-Dawley rat assessed as inhibition of food intake at 10 mg/kg, po measured after 1 hr relative to control; type: organism-based; details: read-out: Ct
[13] = Drug concentration in plasma of fasted male Sprague-Dawley rat assessed as inhibition of food intake at 10 mg/kg, po measured after 1 hr relative to control; type: organism-based

SMILES	EC50 [1]	Ki [2]	Ki [3]	Ki [4]	EC50 [5]	EC50 [6]	also measured
CCNC(=O)c1ccc2c3c1C(CC(F)(F)F)CN3CCNC2 (racemic)	0.045 µM	0.072 µM	12.4 µM	1.62 µM	–	–	–
COC(C)CNC(=O)c1ccc2c3c1CCN3CCNC2 (stereo not given)	0.82 µM	0.348 µM	7.73 µM	0.83 µM	> 50 µM	> 50 µM	–
CNC(=O)c1ccc2c3c1C(CC(F)(F)F)CN3CCNC2 (single isomer, unassigned; (-))	–	–	–	–	–	–	inhibition (INH) (Rattus norvegicus [7]): 0%
CCNC(=O)c1ccc2c3c1CCN3CCNC2	0.252 µM	0.21 µM	8.16 µM	> 30 µM	> 50 µM	> 50 µM	–
CC(C)OCCNC(=O)c1ccc2c3c1CCN3CCNC2	0.057 µM	0.075 µM	> 50 µM	> 30 µM	> 50 µM	> 50 µM	–
CSCCNC(=O)c1ccc2c3c1CCN3CCNC2	0.059 µM	0.084 µM	> 50 µM	> 30 µM	> 50 µM	> 50 µM	–
O=C(NCCCl)c1ccc2c3c1CCN3CCNC2	0.033 µM	0.061 µM	2.49 µM	18.9 µM	> 50 µM	> 50 µM	–
CCCOCCNC(=O)c1ccc2c3c1CCN3CCNC2	0.015 µM	0.019 µM	2.51 µM	0.506 µM	> 50 µM	> 50 µM	–
COCC(C)NC(=O)c1ccc2c3c1CCN3CCNC2 (stereo not given)	7.4 µM	3.07 µM	> 50 µM	> 30 µM	> 50 µM	> 50 µM	–
CNC(=O)c1ccc2c3c1C(CC(F)F)CN3CCNC2 (racemic)	0.023 µM	0.03 µM	0.804 µM	3.78 µM	–	–	–
CCOCCNC(=O)c1ccc2c3c1CCN3CCNC2	0.033 µM	0.043 µM	15.5 µM	6.07 µM	> 50 µM	> 50 µM	inhibition in vivo at 10 mg/kg (Rattus norvegicus [7]): 26%
O=C(NCCOc1ccccc1)c1ccc2c3c1CCN3CCNC2	0.021 µM	0.018 µM	1.67 µM	2.63 µM	> 50 µM	> 50 µM	–
O=C(NCC1CC1)c1ccc2c3c1CCN3CCNC2	0.36 µM	0.32 µM	17.8 µM	17.8 µM	> 50 µM	> 50 µM	–
COCCNC(=O)c1ccc2c3c1CCN3CCNC2	–	–	–	–	–	–	inhibition in vivo at 20 mg/kg (Rattus norvegicus [8]): 25%; inhibition in vivo at 10 mg/kg (Rattus norvegicus [7]): 9%; inhibition in vivo at 10 mg/kg (Rattus norvegicus [9]): 7%
O=C(NCC(F)F)c1ccc2c3c1C(CC(F)(F)F)CN3CCNC2 (racemic)	0.014 µM	0.025 µM	> 50 µM	2.68 µM	–	–	–
O=C(NCC(F)(F)F)c1ccc2c3c1C(CC(F)(F)F)CN3CCNC2 (racemic)	0.178 µM	0.091 µM	5.15 µM	7.33 µM	–	–	–
O=C(NC1CC1)c1ccc2c3c1CCN3CCNC2	0.4 µM	0.38 µM	9.65 µM	21.8 µM	> 50 µM	> 50 µM	–
COCCNC(=O)c1ccc2c3c1C(CC(F)(F)F)CN3CCNC2 (racemic)	0.017 µM	0.038 µM	> 50 µM	0.217 µM	–	–	–

SMILES	EC50 [1]	Ki [2]	Ki [3]	Ki [4]	EC50 [5]	EC50 [6]	also measured
CCOCCNC(=O)c1ccc2c3c1CCCN3CCNC2	0.193 µM	0.232 µM	> 50 µM	> 50 µM	> 50 µM	> 50 µM	–
COCCNC(=O)c1ccc2c3c1CCCN3CCNC2	0.332 µM	–	–	–	> 50 µM	> 50 µM	–
CN(C)C(=O)c1ccc2c3c1CCN3CCNC2	> 30 µM	–	–	–	> 50 µM	> 50 µM	–
O=C(NCCF)c1ccc2c3c1CCN3CCNC2	0.43 µM	0.249 µM	> 50 µM	> 30 µM	> 50 µM	> 50 µM	–
CCSCCNC(=O)c1ccc2c3c1CCN3CCNC2	0.015 µM	0.029 µM	> 50 µM	17.8 µM	> 50 µM	> 50 µM	–
CNC(=O)c1ccc2c3c1C(CC(F)(F)F)CN3CCNC2 (single isomer, unassigned; (+))	–	–	–	–	–	–	inhibition in vivo at 5 mg/kg (Rattus norvegicus [10]): 41%; inhibition (INH) (Rattus norvegicus [7]): 83%; ED50 (Rattus norvegicus [11]): 5.2 mg/kg; concentration at 1 h [12]: 440 ng/g; concentration at 1 h [13]: 1.66 µg/mL
CCC1CN2CCNCc3ccc(C(=O)NC)c1c32 (single isomer, unassigned; (-))	–	–	–	–	–	–	inhibition (INH) (Rattus norvegicus [7]): 0%
CCCNC(=O)c1ccc2c3c1C(CC(F)(F)F)CN3CCNC2 (single isomer, unassigned; (+))	–	–	–	–	–	–	inhibition in vivo at 10 mg/kg (Rattus norvegicus [7]): 53%
CNC(=O)c1ccc2c3c1CCCN3CCNC2	5.6 µM	–	–	–	> 50 µM	> 50 µM	–
CCC1CN2CCNCc3ccc(C(=O)NCC(F)F)c1c32 (single isomer, unassigned; (+))	–	–	–	–	–	–	inhibition in vivo at 5 mg/kg (Rattus norvegicus [10]): 27%; ED50 (Rattus norvegicus [11]): > 5 mg/kg; concentration at 1 h [12]: 454 ng/g; concentration at 1 h [13]: 0.866 µg/mL
O=C(NCC(F)(F)F)c1ccc2c3c1CCN3CCNC2	> 50 µM	–	–	–	> 50 µM	> 50 µM	–
CCC1CN2CCNCc3ccc(C(=O)NCCF)c1c32 (racemic)	0.08 µM	0.121 µM	> 50 µM	0.212 µM	–	–	–
CC(C)NC(=O)c1ccc2c3c1CCN3CCNC2	3.92 µM	1.15 µM	8.76 µM	> 30 µM	> 50 µM	> 50 µM	–
NC(=O)c1ccc2c3c1CCN3CCNC2	2.7 µM	0.5 µM	–	–	> 50 µM	> 50 µM	–
CCC1CN2CCNCc3ccc(C(=O)NC)c1c32 (single isomer, unassigned; (+))	–	–	–	–	–	–	inhibition (INH) (Rattus norvegicus [7]): 63%; ED50 (Rattus norvegicus [11]): 6.4 mg/kg; concentration at 1 h [12]: 222 ng/g; concentration at 1 h [13]: 1.01 µg/mL
CCCCNC(=O)c1ccc2c3c1CCN3CCNC2	0.091 µM	0.16 µM	11.8 µM	> 30 µM	> 50 µM	> 50 µM	–
O=C(NCC(F)F)c1ccc2c3c1CCN3CCNC2	0.4 µM	–	–	–	> 50 µM	> 50 µM	–
CS(=O)(=O)CCNC(=O)c1ccc2c3c1CCN3CCNC2	> 50 µM	12.6 µM	> 50 µM	> 30 µM	> 50 µM	> 50 µM	–
